Experimental data taken from ChEMBL document CHEMBL1201862, “PubChem BioAssay data set” (2004).
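A five-concentration, 48-hour dose response in 96-well plates underlies each endpoint, interpolated linearly between surrounding concentrations. GI50 = concentration required for 50% inhibition of growth.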 Calls of active or inactive are those of the source. Rule as the data show it: active = GI50 up to about 1.1 µM and inactive = higher.

Legend:
Assay in all cases: NCI anticancer screen, dose series, 48 h
[1] = test system: CCRF-CEM
[2] = test system: LOX IMVI
[3] = test system: HOP-62
[4] = test system: A498
[5] = test system: CAKI-1
[6] = test system: K562
[7] = test system: NCI/ADR-RES
[8] = test system: OVCAR-8
[9] = test system: SK-MEL-28
[10] = test system: MDA-MB-231
[11] = test system: SN12C
[12] = test system: SF-539
[13] = test system: OVCAR-3
[14] = test system: HL-60
[15] = test system: 786-0
[16] = test system: HCC 2998
[17] = test system: MDA-N
[18] = test system: SNB-75
[19] = test system: SR
[20] = test system: Hs-578T

Measured: GI50

N#C/C(N)=C(C#N)/N=C/NCCO
inactive: [1] > 100 µM | [2] > 100 µM | [3] > 100 µM | [4] > 100 µM | [5] > 100 µM | [6] > 100 µM | [7] > 100 µM | [8] > 100 µM | [9] > 100 µM | [10] > 100 µM | [11] > 100 µM | [12] > 100 µM | [13] > 100 µM | [14] > 100 µM | [15] > 100 µM | [16] > 100 µM | [17] > 100 µM | [18] > 100 µM | [19] > 100 µM | [20] > 100 µM

Cc1nc2ccc(S(=O)(=O)O)cc2c(=O)n1-c1ccc(C(=O)NN2C(=O)C(Cl)C2c2cccs2)cc1 (stereo not given)
inactive: [1] 63.1 µM | [2] > 100 µM | [3] 23.1 µM | [4] > 100 µM | [5] > 100 µM | [6] > 100 µM | [7] > 100 µM | [8] > 100 µM | [9] > 100 µM | [10] 22.9 µM | [11] > 100 µM | [12] 48 µM | [13] > 100 µM | [14] 17.8 µM | [15] > 100 µM | [16] > 100 µM | [17] 26.1 µM | [18] 50.4 µM | [19] > 100 µM | [20] > 100 µM

C=C1C(=O)O[C@H]2[C@H]([C@H](C)CCCC(C)=O)O[C@H]([C@@]3(C)CCC(=O)O3)C[C@@H]12
inactive: [1] 26.9 µM | [2] 24.4 µM | [3] > 100 µM | [4] > 100 µM | [5] 18.3 µM | [6] 61.4 µM | [7] > 100 µM | [8] 63.4 µM | [9] > 100 µM | [10] > 100 µM | [11] 92 µM | [12] 59.8 µM | [13] 56.1 µM | [14] 41.7 µM | [15] 35.2 µM | [16] 68.1 µM | [17] 53.1 µM | [18] > 100 µM | [19] 55.6 µM | [20] 29.2 µM

CC(C)(C)c1cc(/C=C(\C#N)C2=NCCO2)cc(C(C)(C)C)c1O
inactive: [1] 2.4 µM | [2] 5.96 µM | [3] 4.3 µM | [4] 3.84 µM | [5] 3.04 µM | [6] 3.59 µM | [7] 2.66 µM | [8] 4.67 µM | [9] 6.35 µM | [10] 3.14 µM | [11] 2.94 µM | [12] 3.77 µM | [13] 2.17 µM | [14] 2.12 µM | [15] 3.28 µM | [16] 2.92 µM | [17] 4.42 µM | [18] 2.42 µM | [19] 2.92 µM | [20] 5.09 µM
